Laboratory results from article PMC7411887, “New Paracyclophanylthiazoles with Anti-Leukemia Activity: Design, Synthesis, Molecular Docking, and Mechanistic Studies” (Molecules, 2020).

Tests used:
Assay in all cases: NCI single-dose screen (SRB)
Type in all cases: cell-based
786-0 = settings: Homo sapiens; Renal Cancer 786-0; 10^−5 M; read-out: Growth inhibition percentage
Protocol: (§1) The methodology of the NCI anticancer screening was described in detail elsewhere (http://www.dtp.nci.nih.gov). […] Tested compounds were added to the culture at a single concentration (10^−5 M) and the cultures were incubated for 48 h. End-point determinations were made with a protein binding dye, SRB. Results for each tested compound were reported as the percentage growth of the treated cells when compared to the untreated control cells. The percentage growth was evaluated spectrophotometrically versus controls not treated with test agents. All experiments were repeated three times (Table 1).
(§2) Briefly, the protocol was performed on 60 human tumor cell lines derived from different nine neoplastic diseases. […] If the results obtained met selection criteria, then the compound was tested again on all 60 cell lines in 5× 10-fold dilutions with the top dose being 10^−4 M or 150 μg/mL. Detailed methods are described in the Supplementary Materials related to this article.
(§3) on their site (http://www.dtp.nci.nih.gov). But briefly, the protocol performed at sixty human
(§4) National Cancer Institute, Bethesda, USA. If the results obtained meet selection criteria, then the
(§5) 10-4 molar or 150 μg/mL. […]

KM12 = settings: Homo sapiens; Colon Cancer KM12; 10^−5 M; read-out: Growth inhibition percentage
Protocol: as §1, §2, §3, §4, §5

MDA-MB-231/ATCC = settings: Homo sapiens; Breast Cancer MDA-MB-231/ATCC; 10^−5 M; read-out: Growth inhibition percentage
Protocol: as §1, §2, §3, §4, §5

MOLT-4 = settings: Homo sapiens; Leukemia MOLT-4; 10^−5 M; read-out: Growth inhibition percentage
Protocol: as §1, §2, §3, §4, §5

UO-31 = settings: Homo sapiens; Renal Cancer UO-31; 10^−5 M; read-out: Growth inhibition percentage
Protocol: as §1, §2, §3, §4, §5

M14 = settings: Homo sapiens; Melanoma M14; 10^−5 M; read-out: Growth inhibition percentage
Protocol: as §1, §2, §3, §4, §5

OVCAR-8 = settings: Homo sapiens; Ovarian Cancer OVCAR-8; 10^−5 M; read-out: Growth inhibition percentage
Protocol: as §1, §2, §3, §4, §5

HCC-2998 = settings: Homo sapiens; Colon Cancer HCC-2998; 10^−5 M; read-out: Growth inhibition percentage
Protocol: as §1, §2, §3, §4, §5

NCI-H522 = settings: Homo sapiens; Non-Small-Cell Lung Cancer NCI-H522; 10^−5 M; read-out: Growth inhibition percentage
Protocol: as §1, §2, §3, §4, §5

SK-OV-3 = settings: Homo sapiens; Ovarian Cancer SK-OV-3; 10^−5 M; read-out: Growth inhibition percentage
Protocol: as §1, §2, §3, §4, §5

OVCAR-4 = settings: Homo sapiens; Ovarian Cancer OVCAR-4; 10^−5 M; read-out: Growth inhibition percentage
Protocol: as §1, §2, §3, §4, §5

CCRF-CEM = settings: Homo sapiens; Leukemia CCRF-CEM; 10^−5 M; read-out: Growth inhibition percentage
Protocol: as §1, §2, §3, §4, §5

U251 = settings: Homo sapiens, U-251; CNS Cancer U251; 10^−5 M; read-out: Growth inhibition percentage
Protocol: as §1, §2, §3, §4, §5

TK-10 = settings: Homo sapiens; Renal Cancer TK-10; 10^−5 M; read-out: Growth inhibition percentage
Protocol: as §1, §2, §3, §4, §5

K-562 = settings: Homo sapiens, K562; Leukemia K-562; 10^−5 M; read-out: Growth inhibition percentage
Protocol: as §1, §2, §3, §4, §5

T-47D = settings: Homo sapiens, T47D; Breast Cancer T-47D; 10^−5 M; read-out: Growth inhibition percentage
Protocol: as §1, §2, §3, §4, §5

MDA-MB-468 = settings: Homo sapiens; Breast Cancer MDA-MB-468; 10^−5 M; read-out: Growth inhibition percentage
Protocol: as §1, §2, §3, §4, §5

EKVX = settings: Homo sapiens; Non-Small-Cell Lung Cancer EKVX; 10^−5 M; read-out: Growth inhibition percentage
Protocol: as §1, §2, §3, §4, §5

SR = settings: Homo sapiens; Leukemia SR; 10^−5 M; read-out: Growth inhibition percentage
Protocol: as §1, §2, §3, §4, §5

SF-295 = settings: Homo sapiens; CNS Cancer SF-295; 10^−5 M; read-out: Growth inhibition percentage
Protocol: as §1, §2, §3, §4, §5

SNB-19 = settings: Homo sapiens; CNS Cancer SNB-19; 10^−5 M; read-out: Growth inhibition percentage
Protocol: as §1, §2, §3, §4, §5

OVCAR-5 = settings: Homo sapiens; Ovarian Cancer OVCAR-5; 10^−5 M; read-out: Growth inhibition percentage
Protocol: as §1, §2, §3, §4, §5

CAKI-1 = settings: Homo sapiens; Renal Cancer CAKI-1; 10^−5 M; read-out: Growth inhibition percentage
Protocol: as §1, §2, §3, §4, §5

COLO 205 = settings: Homo sapiens; Colon Cancer COLO 205; 10^−5 M; read-out: Growth inhibition percentage
Protocol: as §1, §2, §3, §4, §5

ACHN = settings: Homo sapiens; Renal Cancer ACHN; 10^−5 M; read-out: Growth inhibition percentage
Protocol: as §1, §2, §3, §4, §5

MCF7 = settings: Homo sapiens; Breast Cancer MCF7; 10^−5 M; read-out: Growth inhibition percentage
Protocol: as §1, §2, §3, §4, §5

UACC-257 = settings: Homo sapiens; Melanoma UACC-257; 10^−5 M; read-out: Growth inhibition percentage
Protocol: as §1, §2, §3, §4, §5

SF-539 = settings: Homo sapiens; CNS Cancer SF-539; 10^−5 M; read-out: Growth inhibition percentage
Protocol: as §1, §2, §3, §4, §5

MDA-MB-435 = settings: Homo sapiens; Melanoma MDA-MB-435; 10^−5 M; read-out: Growth inhibition percentage
Protocol: as §1, §2, §3, §4, §5

SN12C = settings: Homo sapiens; Renal Cancer SN12C; 10^−5 M; read-out: Growth inhibition percentage
Protocol: as §1, §2, §3, §4, §5

COC(=O)/C=C1/S/C(=N/NC(=O)c2cc3ccc2CCc2ccc(cc2)CC3)N(C2CC2)C1=O [Compound 3f]
inhibition at 10 µM (786-0): 14.6% | inhibition at 10 µM (KM12): 1.32% | inhibition at 10 µM (MDA-MB-231/ATCC): 3.5% | inhibition at 10 µM (MOLT-4): 55.6% | inhibition at 10 µM (UO-31): 21.7% | inhibition at 10 µM (M14): 19.2% | inhibition at 10 µM (OVCAR-8): 13.3% | inhibition at 10 µM (HCC-2998): 0% | inhibition at 10 µM (NCI-H522): 30% | inhibition at 10 µM (SK-OV-3): 0% | inhibition at 10 µM (OVCAR-4): 10.5% | inhibition at 10 µM (CCRF-CEM): 41.4% | inhibition at 10 µM (U251): 20.3% | inhibition at 10 µM (TK-10): 0% | inhibition at 10 µM (K-562): 30.5% | inhibition at 10 µM (T-47D): 23% | inhibition at 10 µM (MDA-MB-468): 29.7% | inhibition at 10 µM (EKVX): 12.2% | inhibition at 10 µM (SR): 39.1% | inhibition at 10 µM (SF-295): 8.8% | inhibition at 10 µM (SNB-19): 11.3% | inhibition at 10 µM (OVCAR-5): 0% | inhibition at 10 µM (CAKI-1): 24.5% | inhibition at 10 µM (COLO 205): 4.48% | inhibition at 10 µM (ACHN): 17.8% | inhibition at 10 µM (MCF7): 36.4% | inhibition at 10 µM (UACC-257): 16.3% | inhibition at 10 µM (SF-539): 0% | inhibition at 10 µM (MDA-MB-435): 8.06% | inhibition at 10 µM (SN12C): 17.1%
